Assays:
[1] = Serum magnesium in CKD Stage 3 and Stage 5D after EffCaMgCit or calcium acetate; format: in vivo, human
[2] = Multi-dosing crossover trial on esomeprazole: fractional excretion of magnesium (FEMg); format: in vivo, human; conditions: from baseline over 2-4 weeks
Protocol: (§1) The inventors conducted a multi-dosing trial, in which the effect of EffCaMgCit was compared with placebo in a crossover trial in 22 healthy subjects taking PPI at twice the usual dose (esomeprazole 40 mg/day) for 28 days, representing the recommended treatment format for erosive esophagitis-gastritis. During the EffCaMgCit phase, subjects took EffCaMgCit containing 19 meq calcium and 10 meq magnesium twice per day for 28 days. During the Placebo Phase, the subjects took placebo for 28 days. During both phases, the subjects took esomeprazole 40 mg per day. Blood samples were obtained 4 hours after EffCaMgCit dose (in multi-dosing trials with esomeprazole), rather than in the fasting state. Tamsen: no study with PPI in CKD. Peak absorption of calcium and magnesium occurs 2-4 hours after oral load. Thus, pharmacokinetic and pharmacodynamic effects of EffCaMgCit can best be captured in post-load samples.

[3] = Multi-dosing crossover trial on esomeprazole: 24-h urinary citrate and ammonium (acid load); format: in vivo, human; conditions: after 2-4 weeks of treatment
Protocol: as §1
24-h urinary citrate and ammonium, urinary markers of acid-base balance, were determined at baseline and after 2-4 weeks of treatment with esomeprazole (plus placebo) and after treatment with esomeprazole (plus EffCaMgCit). […] FIGS. 10 and 11.

[4] = Multi-dosing crossover trial on esomeprazole: post-load serum magnesium; format: in vivo, human; conditions: for number of subjects with hypomagnesemia or marginal hypomagnesemia (<2 mg/dL): of 22 subjects, baseline 2; for subjects with hypomagnesemia or marginal hypomagnesemia (<2 mg/dL): baseline 9%
Protocol: as §1
Serum magnesium was determined at 2 weeks and 4 weeks at 4 hours after the morning dose. […] At baseline (before starting esomeprazole), 9% of subjects had hypomagnesemia or marginal hypomagnesemia (<2 mg/dL). During treatment with placebo with esomeprazole, hypomagnesemia or marginal hypomagnesemia was found in a higher percentage of subjects (14% at 2 weeks, and 23% at 4 weeks). During treatment with EffCaMgCit with esomeprazole, no subjects had hypomagnesemia or marginal hypomagnesemia. FIGS. 7 and 8.

[5] = Multi-dosing crossover trial on esomeprazole: post-load serum calcium; format: in vivo, human; conditions: for number of subjects with hypocalcemia or marginal hypocalcemia (serum calcium <9 mg/dL): of 22 subjects; for subjects with low or marginally low serum calcium (<9 mg/dL): baseline 18%
Protocol: as §1
A venous blood sample was obtained at 4 hours after the morning dose of EffCaMgCit or placebo, for the analysis of Ca, PTH, CTX and Mg after 2 weeks and 4 weeks of treatment. […] In the Placebo group (while on esomeprazole), a low or marginally low serum calcium (<9 mg/dL) was encountered in 23% of subjects at 2 weeks and in 18% of subjects at 4 weeks. […] Thus, not only did EffCaMgCit raise serum calcium, but it also corrected low or marginally low serum calcium. At two weeks of placebo (esomeprazole alone), a higher percentage of subjects had low or marginally low serum calcium than at baseline before esomeprazole (23% vs. 18%). Thus, a low or marginally low serum calcium developed during two weeks of esomeprazole therapy in an additional patient. This subject had normal serum calcium on EffCaMgCit (plus esomeprazole). FIGS. 1 and 2.

serum PTH = assay: Multi-dosing crossover trial on esomeprazole: post-load serum PTH; format: in vivo, human; conditions: of 22 subjects, baseline 8
Protocol: as §1
(§2) A venous blood sample was obtained at 4 hours after the morning dose of EffCaMgCit or placebo, for the analysis of Ca, PTH, CTX and Mg after 2 weeks and 4 weeks of treatment. […] In the Placebo group (while on esomeprazole), a low or marginally low serum calcium (<9 mg/dL) was encountered in 23% of subjects at 2 weeks and in 18% of subjects at 4 weeks. […] Thus, not only did EffCaMgCit raise serum calcium, but it also corrected low or marginally low serum calcium. […]

serum FGF23 = assay: Multi-dosing crossover trial on esomeprazole: post-load serum FGF23; format: in vivo, human; conditions: 4 hours after morning dose, baseline to 4 weeks
Protocol: as §1

serum CTX = assay: Multi-dosing crossover trial on esomeprazole: post-load serum CTX (bone resorption marker); format: in vivo, human; set-up: dose or concentration left out as unconfirmed; conditions: of 22 subjects
Protocol: as §1, §2

[6] = omeprazole use versus non-omeprazole use, FDA Adverse Event Reporting System 2012 (Tamura, 2012); cited from earlier work

Structure (SMILES): CC(=O)[O-].CC(=O)[O-].[Ca+2] [calcium acetate]
- serum magnesium after treatment ([1]; CKD Stage 3, data not shown): did not change
- serum Mg after treatment ([1]; CKD Stage 5D without residual renal function): did not

Structure (SMILES): COc1ccc2nc([S@@+]([O-])Cc3ncc(C)c(OC)c3C)[nH]c2c1 [esomeprazole]
- FEMg, change during treatment [2]: trended downward
- 24-h urinary ammonium compared with baseline [3]: marginally higher
- 24-h urinary citrate compared with baseline [3]: significantly lower
- number of subjects with hypomagnesemia or marginal hypomagnesemia (<2 mg/dL) ([4]; at 2 weeks): 3 subjects
- subjects with hypomagnesemia or marginal hypomagnesemia (<2 mg/dL) ([4]; at 2 weeks): 14%
- number of subjects with hypomagnesemia or marginal hypomagnesemia (<2 mg/dL) ([4]; at 4 weeks): 5 subjects
- subjects with hypomagnesemia or marginal hypomagnesemia (<2 mg/dL) ([4]; at 4 weeks): 23%
- number of subjects with hypocalcemia or marginal hypocalcemia (serum calcium <9 mg/dL) ([5]; after 4 weeks): 4 subjects
- number of subjects with hypocalcemia or marginal hypocalcemia (serum calcium <9 mg/dL) ([5]; at 2 weeks): 5 subjects
- subjects with low or marginally low serum calcium (<9 mg/dL) ([5]; at 2 weeks): 23%
- subjects with low or marginally low serum calcium (<9 mg/dL) ([5]; at 4 weeks): 18%
- number of subjects with high serum PTH (>65 pg/ml) (serum PTH; at 2 weeks): 15 subjects
- number of subjects with high serum PTH (>65 pg/ml) (serum PTH; at 4 weeks): 10 subjects
- serum FGF23, change from Baseline (serum FGF23): trend toward a decline
- serum FGF23, change from Baseline (serum FGF23; listed as PPI): tended to rise
- number of subjects with high serum CTX (upper normal limit) (serum CTX; at 2 weeks): Six
- number of subjects with high serum CTX (upper normal limit) (serum CTX; at 4 weeks): Six

Structure (SMILES): COc1ccc2[nH]c([S+]([O-])Cc3ncc(C)c(OC)c3C)nc2c1 (centres unmarked) [omeprazole]
- odds ratio of hypomagnesemia [6]: 2.76

— patent publication US20200078395A1, “AVERTING COMPLICATIONS OF PUMP INHIBITOR THERAPY BY EFFERVESCENT CALCIUM MAGNESIUM CITRATE” (THE BOARD OF REGENTS OF THE UNIVERSITY OF TEXAS SYSTEM, priority 2018, published 2020)
